Results from patent publication US7488738B2, “Aminophenoxyacetic acid derivatives and pharmaceutical composition containing thereof” (Asubio Pharma Co., Ltd., priority 1998, dated 2009).

test system: cells of cerebral cortex; assay: Cytoprotective effect against glutamate induced cell death (MTT); type: cell-based, rats of Wister strain; conditions: compound 1 μM added 24 h before 1 mM glutamate, fetal rat cerebral cortex cells, control group = 100%
Method: Biological Test 1: Cytoprotective Effect Against Glutamate Induced Cell Death
In accordance with the method of M. P. Mattoson [M. P. Mattoson, Brain Res. Rev., 13, 179 (1988)], brain of 18-days fetus rats of Wister strain were taken out. Then, cells of cerebral cortex (4×10^5 cells/ml) were seeded on poly-L-lysine coated 96 wells flat bottom plate (Sumitomo Bakelite Co., Ltd.) in concentration of 4×10^4 cells/each well. After 48 hours of incubation, 1 μM of test compounds were added, then after further 24 hours, 1 mM of glutamate were further added for inducing the cell injury. 12 hours after adding glutamate, MTT [3-(4,5-dimethylthiazol)-2,5-diphenyltetrazolium bromide] was added and incubated for 6 hours.
After incubation, 200 μl of dimethy sulfoxide was added to each wells, and the amounts of reduced MTT were calorimetrically analyzed by Micro ELISA Reader using 570 nm of main-wavelength and 650 nm of sub-wavelength.
The effect of the test compounds was determined as the survival rate of living cells (%) according to the following equation: Survival rate of living cells (%)=[(test compound group−glutamate treated group)÷(control group−glutamate treated group)]×100
That is, the survival rate of living cells after incubation of the control group was converted to 100%, and the survival data of living cells of the tested compounds was shown in Table II.

SMILES | Survival Rate (%) (Compound: 1 μM)
Cc1cc(OCC(=O)N(C)C2CCN(CC(=O)N[C@@H]3C[C@H]3c3ccccc3)CC2)c(C)c(C)c1N (relative stereo) [Compound 66] | 60
Cc1cc(OC(C)(C)C(=O)NC2CCN(C[C@@H]3C[C@H]3c3ccccc3)CC2)c(C)c(C)c1N (relative stereo) [Compound 99, 2-(4-Amino-2,3,5-trimethylphenoxy)-2-methyl-N-[1-(trans-2-phenyl-1-cyclopropylmethyl)-4-piperidinyl]propamide] | 151
Cc1cc(OC(C)C(=O)NC2CCN(C[C@@H]3C[C@H]3c3ccccc3)CC2)c(C)c(C)c1N (relative stereo) [Compound 106, 2-(4-Amino-2,3,5-trimethylphenoxy)-N-[1-(trans-2-phenyl-1-cyclopropylmethyl)-4-piperidinyl]propamide] | 151
Cc1cc(N)c(NCC(=O)N(C)C2CCN(C[C@@H]3C[C@H]3c3ccccc3)CC2)cc1C (relative stereo) [Compound 137, 2-(2-Amino-4-5-dimethylanilino)-N-methyl-N-[1-(trans-2-phenyl-1-cyclopropylmethyl)-4-piperidinyl]acetamide] | 71
Cc1cc(OC(C)(C)C(=O)N(C)C2CCN(CCc3ccccc3)CC2)c(C)c(C)c1N [Compound 38, 2-(4-Amino-2,3,5-trimethylphenoxy)-2-methyl-N-methyl-N-[1-(2-phenethyl)-4-piperidinyl]propamide] | 114
Cc1c(C)c(NCC(=O)N(C)C2CCN(CC(=O)Nc3ccccc3)CC2)c(C)c(C)c1N [Compound 41, 2-(4-Amino-2,3,5,6-tetramethylanilino)-N-[1-(2-anilino-2-oxyethyl)-4-piperidinyl]-N-methylacetamide] | 86
Cc1cc(OCC(=O)N(C)C2CCN(CC(=O)Nc3cccc(Cl)c3C)CC2)c(C)c(C)c1N [Compound 45, 2-(4-Amino-2,3,5-trimethylphenoxy)-N-[1-(2-(3-chloro-2-methyl)anilino-2-oxyethyl)-4-piperidinyl]-N-methylacetamide] | 190
Cc1cc(OCC(=O)N(C)C2CCN(CC(=O)Nc3ccccc3C(C)(C)C)CC2)c(C)c(C)c1N [Compound 46, 2-(4-Amino-2,3,5-trimethylphenoxy)-N-[1-(2-(2-tert-butyl)anilino-2-oxyethyl)-4-piperidinyl]-N-methylacetamide] | 101
Cc1cc(OC(C)(C)C(=O)N(C)C2CCN(CC(=O)Nc3cccc(Cl)c3C)CC2)c(C)c(C)c1N [Compound 48, 2-(4-Amino-2,3,5-trimethylphenoxy)-2-methyl-N-[1-(2-(3-chloro-2-methyl)anilino-2-oxyethyl)-4-piperidinyl]-N-methylpropamide] | 207
Cc1cc(OC(C)(C)C(=O)N(C)C2CCN(CC(=O)Nc3ccccc3C(C)(C)C)CC2)c(C)c(C)c1N [Compound 49, 2-(4-Amino-2,3,5-trimethylphenoxy)-2-methyl-N-[1-(2-tert-butylanilino-2-oxyethyl)-4-piperidinyl]-N-methylpropamide] | 193
Cc1cc(OC(C)(C)C(=O)N(C)C2CCN(CC(=O)Nc3c(C)cccc3C)CC2)c(C)c(C)c1N [Compound 50, 2-(4-Amino-2,3,5-trimethylphenoxy)-2-methyl-N-[1-(2-(2,6-dimethyl)anilino-2-oxyethyl)-4-piperidinyl]-N-methyl-propamide] | 54
Cc1cc(OC(C)C(=O)N(C)C2CCN(CC(=O)Nc3ccccc3C(C)(C)C)CC2)c(C)c(C)c1N (centres unmarked) [Compound 60, 2-(4-Amino-2,3,5-trimethylphenoxy)-N-[1-(2-(2-tert-butylanilino)-2-oxyethyl)-4-piperidinyl]-N-methylpropamide] | 60
Cc1cc(OC(C)C(=O)N(C)C2CCN(CC(=O)Nc3c(C)cccc3C)CC2)c(C)c(C)c1N (centres unmarked) [Compound 61, 2-(4-Amino-2,3,5-trimethylphenoxy)-N-[1-(2-(2,6-dimethylanilino)-2-oxyethyl)-4-piperidinyl]-N-methylpropamide] | 58
Cc1cc(OC(C)C(=O)N(C)C2CCN(C/C=C/c3ccccc3)CC2)c(C)c(C)c1N (centres unmarked) [Compound 62, 2-(4-Amino-2,3,5-trimethylphenoxy)-N-methyl-N-[1-(3-phenyl-2-(E)-propenyl)-4-piperidinyl]propamide] | 63
Cc1cc(OCC(=O)N(C)C2CCN(CC(O)COc3ccccc3)CC2)c(C)c(C)c1N (centres unmarked) [Compound 65, 2-(4-Amino-2,3,5-trimethylphenoxy)-N-methyl-N-[1-(2-hydroxy-3-phenoxy)propyl-4-piperidinyl]acetamide] | 73
Cc1cc(OC(C)(C)C(=O)N(C)C2CCN(C/C=C/c3ccccc3)CC2)c(C)c(C)c1N [Compound 67, 2-(4-Amino-2,3,5-trimethylphenoxy)-2-methyl-N-methyl-N-{1-(3-phenyl-2-(E)-propenyl)-4-piperidinyl]propamide] | 69
Cc1cc(OC(C)(C)C(=O)N(C)C2CCN(CC3(c4ccccc4)CC3)CC2)c(C)c(C)c1N [Compound 68, 2-(4-Amino-2,3,5-trimethylphenoxy)-2-methyl-N-methyl-N-[1-(1-phenyl-1-cyclopropane)methyl-4-piperidinyl]propamide] | 75
Cc1cc(OC(C)(C)C(=O)N(C)C2CCN(CC(=O)NC3(c4ccccc4)CC3)CC2)c(C)c(C)c1N [Compound 69, 2-(4-Amino-2,3,5-trimethylphenoxy)-2-methyl-N-methyl-N-[1-(2-(1-phenylcyclopropyl)amino-2-oxyethyl)-4-piperidinyl]propamide] | 68
Cc1c(C)c(NCC(=O)N(C)C2CCN(CC3(c4ccccc4)CC3)CC2)c(C)c(C)c1N [Compound 70, 2-(4-Amino-2,3,5,6-tetramethylanilino)-N-methyl-N-[1-(1-phenyl-1-cyclopropane)methyl-4-piperidinyl]acetamide] | 88
CCN(C(=O)COc1cc(C)c(N)c(C)c1C)C1CCN(CC(=O)Nc2ccccc2)CC1 [Compound 71, 2-(4-Amino-2,3,5-trimethylphenoxy)-N-[1-(2-anilino-2-oxyethyl)-4-piperidinyl]-N-ethylacetamide] | 89
CCN(C(=O)C(C)Oc1cc(C)c(N)c(C)c1C)C1CCN(CC(=O)Nc2ccccc2)CC1 (centres unmarked) [Compound 75, 2-(4-Amino-2,3,5-trimethylphenoxy)-N-[1-(2-anilino-2-oxyethyl)-4-piperidinyl]-N-ethylpropamide] | 96
CCN(C(=O)C(C)Oc1cc(C)c(N)c(C)c1C)C1CCN(C/C=C/c2ccccc2)CC1 (centres unmarked) [Compound 77, 2-(4-Amino-2,3,5-trimethylphenoxy)-N-ethyl-N-[1-(3-phenyl-2-(E)-propenyl)-4-piperidinyl]propamide] | 111
Cc1cc(OC(C)(C)C(=O)N(C)C2CCN(CC(=O)Nc3cc(Cl)c(N)cc3Cl)CC2)c(C)c(C)c1N [Compound 79, 2-(4-Amino-2,3,5-trimethylphenoxy)-2-methyl-N-[1-(2-(4-amino-2,5-dichloro)anilino-2-oxyethyl)-4-piperidinyl]-N-methylpropamide] | 79

same assay, conditions: compound 1 μM added 24 h before 1 mM glutamate, fetal rat cerebral cortex cells, control group = 100%, read-out: Survival Rate (%) (Compound: 1 μM)

SMILES | viability at 1 µM [%]
CCN(C(=O)CNc1c(C)c(C)c(N)c(C)c1C)C1CCN(C[C@@H]2C[C@H]2c2ccccc2)CC1 (relative stereo) [Compound 94, 2-(4-Amino-2,3,5,6-tetramethylanilino)-N-ethyl-N-[1-(trans-2-phenyl-1-cyclopropylmethyl)-4-piperidinyl]acetamide] | 198
Cc1cc(OCC(=O)NC2CCN(C[C@@H]3C[C@H]3c3ccccc3)CC2)c(C)c(C)c1N (relative stereo) [Compound 95, 2-(4-Amino-2,3,5-trimethylphenoxy)-N-[1-(trans-2-phenyl-1-cyclopropylmethyl)-4-piperidinyl]acetamide] | 61
Cc1cc(OCC(=O)N(C)C2CCN(Cc3ccc4ccccc4n3)CC2)c(C)c(C)c1N [Compound 44, 2-(4-Amino-2,3,5-trimethylphenoxy)-N-methyl-N-[1-(2-quinolylmethyl)-4-piperidinyl]acetamide] | 93
Cc1cc(OCC(=O)N(C)C2CCN(C/C=C/c3ccccc3)CC2)c(C)c(C)c1N [Compound 53, 2-(4-Amino-2,3,5-trimethylphenoxy)-N-methyl-N-[1-(3-phenyl-2-(E)-propenyl)-4-piperidinyl]acetamide] | 144
CCN(C(=O)COc1cc(C)c(N)c(C)c1C)C1CCN(C/C=C/c2ccccc2)CC1 [Compound 74, 2-(4-Amino-2,3,5-trimethylphenoxy)-N-ethyl-N-[1-(3-phenyl-2-(E)-propenyl)-4-piperidinyl]acetamide] | 87
CCN(C(=O)CNc1c(C)c(C)c(N)c(C)c1C)C1CCN(C/C=C/c2ccccc2)CC1 [Compound 78, 2-(4-Amino-2,3,5,6-tetramethylanilino)-N-ethyl-N-[1-(3-phenyl-2-(E)-propenyl)-4-piperidinyl]acetamide] | 96
